Test results from BindingDB's records for doi:10.1016/j.bmcl.2005.12.040 (Celera, 2006).
pKi: −log10 of the molar value.

molecular target: T1, Coagulation factor VII (Homo sapiens, UniProt P08709); test: Enzyme Inhibition Assay
T1 sequence (P08709 whole entry): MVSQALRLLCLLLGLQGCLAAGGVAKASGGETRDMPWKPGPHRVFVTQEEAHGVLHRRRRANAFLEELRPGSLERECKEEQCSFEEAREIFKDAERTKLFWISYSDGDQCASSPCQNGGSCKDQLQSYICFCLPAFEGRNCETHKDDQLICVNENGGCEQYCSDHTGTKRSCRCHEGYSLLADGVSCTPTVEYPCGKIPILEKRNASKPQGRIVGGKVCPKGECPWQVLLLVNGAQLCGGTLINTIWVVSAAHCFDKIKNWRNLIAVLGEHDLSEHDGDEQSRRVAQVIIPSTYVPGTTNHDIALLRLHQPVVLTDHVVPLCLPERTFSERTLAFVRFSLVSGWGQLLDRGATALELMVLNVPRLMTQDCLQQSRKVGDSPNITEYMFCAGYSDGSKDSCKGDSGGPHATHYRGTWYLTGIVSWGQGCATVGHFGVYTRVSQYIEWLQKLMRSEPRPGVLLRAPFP
Method: The enzyme reactions were initiated by the addition of substrate, and the color developed from the release of p-nitroanilide from each chromogenic substrate was monitored at 405 nm using a Thermomax kinetic plate reader (Molecular Devices). […] The apparent Ki values were then calculated according to the Cheng-Prusoff equation: Ki = IC50/1 + [S]/Km.

Row | pKi | Structure (SMILES)
1 | 7.27 | CC(=O)N(c1cccc(C)c1)c1cc(C(CC(=O)O)C(=O)O)cc(-c2nc3ccc(C(=N)N)cc3[nH]2)c1O (stereo not given) [2-[3-(5-carbamimidoyl-1H-1,3-benzodiazol-2-yl)-4-hydroxy-5-[N-(3-methylphenyl)acetamido]phenyl]butanedioic acid]
2 | 6.96 | N=C(N)c1ccc2nc(-c3cc(C(CC(=O)O)C(=O)O)cc(-c4ccc(Cl)s4)c3O)[nH]c2c1 (stereo not given) [2-[3-(5-carbamimidoyl-1H-1,3-benzodiazol-2-yl)-5-(5-chlorothiophen-2-yl)-4-hydroxyphenyl]butanedioic acid]
3 | 6.55 | N=C(N)c1ccc2nc(-c3cc(C(CC(=O)O)C(=O)O)cc(-c4cccc(C5CCOC(=O)O5)c4)c3O)[nH]c2c1 (stereo not given) [2-[3-(5-carbamimidoyl-1H-1,3-benzodiazol-2-yl)-4-hydroxy-5-[3-(2-oxo-1,3-dioxan-4-yl)phenyl]phenyl]butanedioic acid]
4 | 6.89 | N=C(N)c1ccc2nc(-c3cc(C(CC(=O)O)C(=O)O)cc(-c4ccc(CO)s4)c3O)[nH]c2c1 (stereo not given) [2-[3-(5-carbamimidoyl-1H-1,3-benzodiazol-2-yl)-4-hydroxy-5-[5-(hydroxymethyl)thiophen-2-yl]phenyl]butanedioic acid]
5 | 7.19 | CSc1ccccc1-c1cc(C(CC(=O)O)C(=O)O)cc(-c2nc3ccc(C(=N)N)cc3[nH]2)c1O (stereo not given) [2-[3-(5-carbamimidoyl-1H-1,3-benzodiazol-2-yl)-4-hydroxy-5-[2-(methylsulfanyl)phenyl]phenyl]butanedioic acid]
